# Assay results published in patent US11034692B1 (Genentech, Inc., priority 2017, dated 2021).
# Biological target: HPK1
# Assay: HPK1 Lantha Binding Assay ("Lanth")
# Conditions: Table B1-1, read-out: HPK1 Ki (μM) (Lanth)
# Description: HPK1 Lantha Binding Assay (“Lanth”)
# The compounds to be tested were diluted by preparing 12.5 uL/well of 5 mM compound (100×) in columns 2 and 13 and 10 ul/well of DMSO in columns 3-12, 14-23, and wells A1-H1 and I24-P24 of the compound plate using a Bravo liquid handling platform. For the reference compound, the top concentration was 1 mM. To the plate was added 10 ul 2 mM staurosporine in wells J1-P1 and A24-H24. A 11 point 5-fold compound serial dilution was performed using the Bravo liquid handling platform. From the plate were transferred 2.5 ul of the solutions from column 2 and column 13 to the 10 ul of DMSO in columns 3 and 14 & so on. The compound plate was centrifuged at 2500 rpm for 1 min. From the compound plate was transferred 80 nl of the compounds into an assay plate using the Echo liquid handler system. One compound plate makes two assay plates. Each assay plate is sealed and stored in an N2 cabinet.
# The following assay concentrations and times were used: 2 nM HPK1, 2 nM Eu-Anti-GST Ab, and 15 nM Tracer222, with 60 min incubation time.
# III. HPK Lantha Binding Assay:
# For the binding assay, 4 ul 2×HPK1 and Eu-anti-GST antibody were added to each well of the assay plate using a Multidrop reagent dispenser. The solutions were incubated in a 23 C incubator for 1 h. To each well of the assay plate was added 4 ul 2× Tracer-222 using a Multidrop reagent dispenser. The solutions were again incubated in a 23 C incubator for 1 h. The results of the assay were read using an Envision plate reader with the following parameters: TR_FRET, 340ex/615 and 665em; 100 usec Delay; and 200 usec integration.
# Compound Ki was analyzed using Morrison ki fit model in XL-fit • a. fit=(1−((((E+x)+(Ki*(1+(S/Kd))))−(((((E+x)+(Ki*(1+(S/Kd))))[…])−((4*E)*x))^0.5))/(2*E))) • res=(y-fit) • b. Parameters: • E=enzyme concentration • S=Tracer222 concentration, Kd=Tracer222 Kd • All measurements reported using the same units (uM)
# Exemplary compounds of Formula I or Ia were tested in the binding assays. The Ki data in Table B1-1 are based on the “Lanth” assay.
row,SMILES,Ki
1,"CCc1ccncc1-c1cc2cc(Nc3cnn(C4CCNCC4)c3)ncc2c(N)n1 [Compound 78, 3-(4-Ethylpyridin-3-yl)-N6-(1-piperidin-4-yl-1H-pyrazol-4-yl)-[2,7] naphthyridine-1,6-diamine]",0.1 nM
2,"CCc1ccncc1-c1cc2cc(NS(=O)(=O)C3CC3)ncc2c(N)n1 [Compound 79, Cyclopropanesulfonic acid [8-amino-6-(4-ethylpyridin-3-yl)-[2,7]naphthyridin-3-yl]amide]",839 nM
3,"Cc1ccncc1-c1cc2cc(NC(=O)C3C4CNCC43)ncc2c(N)n1 (stereo not shown) [Compound 111, N-[8-amino-6-(4-methyl-3-pyridyl)-2,7-naphthyridin-3-yl]-3-azabicyclo[3.1.0]hexane-6-carboxamide]",2.38 nM
4,"Cc1ccncc1-c1cc2cc(NC(=O)C3CC34CNC4)ncc2c(N)n1 (stereo not shown) [Compound 113, N-[8-amino-6-(4-methyl-3-pyridyl)-2,7-naphthyridin-3-yl]-5-azaspiro[2.3]hexane-2-carboxamide]",3.53 nM
5,"COCCN1C[C@@H]2[C@H](C1)[C@H]2C(=O)Nc1cc2cc(-c3cnccc3C)nc(N)c2cn1 [Compound 124, exo-N-[8-amino-6-(4-methyl-3-pyridyl)-2,7-naphthyridin-3-yl]-3-(2-methoxyethyl)-3-azabicyclo[3.1.0]hexane-6-carboxamide]",1.1 nM
6,Cc1ccncc1-c1cc2cc(NC(=O)O[C@@H]3CCNC3=O)ncc2c(N)n1 [Compound 133],15 nM
7,"Cc1ccncc1-c1cc2cc(NC(=O)N[C@H]3CCC[C@@H]3O)ncc2c(N)n1 [Compound 134, 1-[8-amino-6-(4-methyl-3-pyridyl)-2,7-naphthyridin-3-yl]-3-[(1S,2S)-2-hydroxycyclopentyl]urea]",5.6 nM
8,"CC(=O)N1C[C@@H]2[C@H](C1)[C@H]2C(=O)Nc1cc2cc(-c3cnccc3C)nc(N)c2cn1 [Compound 143, exo-3-acetyl-N-[8-amino-6-(4-methyl-3-pyridyl)-2,7-naphthyridin-3-yl]-3-azabicyclo[3.1.0]hexane-6-carboxamide]",5.9 nM
9,"Cc1ccncc1-c1cc2cc(NC(=O)[C@H]3[C@@H]4CN(S(C)(=O)=O)C[C@@H]43)ncc2c(N)n1 [Compound 151, exo-N-[8-amino-6-(4-methyl-3-pyridyl)-2,7-naphthyridin-3-yl]-3-methylsulfonyl-3-azabicyclo [3.1.0]hexane-6-carboxamide]",15 nM
10,"CC(=O)Nc1cc2c(F)c(-c3cnccc3C)nc(N)c2cn1 [Compound 156, N-(8-amino-5-fluoro-6-(4-methylpyridin-3-yl)-2,7-naphthyridin-3-yl)acetamide]",21 nM
11,"Cc1ccncc1-c1cc2cc(NC(=O)[C@H]3[C@@H]4CNC(=O)[C@@H]43)ncc2c(N)n1 [Compound 158, Exo-N-(8-amino-6-(4-methylpyridin-3-yl)-2,7-naphthyridin-3-yl)-2-oxo-3-azabicyclo[3.1.0]hexane-6-carboxamide]",3.6 nM
12,"CC(=O)N1CC(n2cc(Nc3cc4cc(-c5cnccc5C)nc(N)c4cn3)cn2)C1 [Compound 161, 1-[3-[4-[[8-amino-6-(4-methyl-3-pyridyl)-2,7-naphthyridin-3-yl]amino]pyrazol-1-yl]azetidin-1-yl]ethanone]",0.02 nM
13,"Cc1ccncc1-c1nc(N)c2cnc(NC(=O)Nc3cnn(C)c3)cc2c1F [Compound 162, 1-[8-amino-5-fluoro-6-(4-methyl-3-pyridyl)-2,7-naphthyridin-3-yl]-3-(1-methylpyrazol-4-yl)urea]",3.2 nM
14,"Cc1ccncc1-c1nc(N)c2cnc(NC(=O)Nc3cnn(C)c3)cc2c1Cl [Compound 163, 1-[8-amino-5-chloro-6-(4-methyl-3-pyridyl)-2,7-naphthyridin-3-yl]-3-(1-methylpyrazol-4-yl)urea]",1.2 nM

# Second part, the molecule after the results:
row,Ki,SMILES
1,5.24 nM,"CCc1ccncc1-c1cc2cc(NC(=O)OCc3ccccc3)ncc2c(N)n1 [Compound 57, Benzyl 8-amino-6-(4-ethylpyridin-3-yl)-2,7-naphthyridin-3-ylcarbamate]"
2,5.47 nM,"CCc1ccncc1-c1cc2cc(NC(=O)N[C@@H]3CCN(C)C3=O)ncc2c(N)n1 [Compound 65, (R)-1-(8-amino-6-(4-ethylpyridin-3-yl)-2,7-naphthyridin-3-yl)-3-(1-methyl-2-oxopyrrolidin-3-yl)urea]"
3,545 nM,"CCc1ccncc1-c1cc2cc(NC(=O)C3=CC3)ncc2c(N)n1 [Compound 68, N-[8-amino-6-(4-ethyl-3-pyridyl)-2,7-naphthyridin-3-yl]cyclopropene-1-carboxamide]"
4,27.6 nM,"CCc1ccncc1-c1cc2cc(NC(=O)c3cc(C)[nH]n3)ncc2c(N)n1 [Compound 70, 5-Methyl-1H-pyrazole-3-carboxylic acid [8-amino-6-(4-ethylpyridin-3-yl)-[2,7]naphthyridin-3-yl]amide]"
5,10 nM,"CCc1ccncc1-c1cc2cc(NC(=O)c3cc[nH]n3)ncc2c(N)n1 [Compound 71, 2H-Pyrazole-3-carboxylic acid [8-amino-6-(4-ethylpyridin-3-yl)-[2,7]naphthyridin-3-yl]amide]"
6,14.1 nM,"CCc1ccncc1-c1cc2cc(NC(=O)c3ccnn3C)ncc2c(N)n1 [Compound 72, 2-Methyl-2H-pyrazole-3-carboxylic acid [8-amino-6-(4-ethylpyridin-3-yl)-[2,7]naphthyridin-3-yl]amide]"
7,13.4 nM,"CCc1ccncc1-c1cc2cc(NC(=O)c3cnn(C)c3)ncc2c(N)n1 [Compound 73, 1-Methyl-1H-pyrazole-4-carboxylic acid [8-amino-6-(4-ethylpyridin-3-yl)-[2,7]naphthyridin-3-yl]amide]"
8,1.3 nM,"CCc1ccncc1-c1cc2cc(Nc3cnn(C)c3)ncc2c(N)n1 [Compound 74, 3-(4-Ethylpyridin-3-yl)-N6-(1-methyl-1H-pyrazol-4-yl)-[2,7]naphthyridine-1,6-diamine]"
9,0.8 nM,"CCc1ccncc1-c1cc2cc(Nc3cn[nH]c3)ncc2c(N)n1 [Compound 75, 3-(4-Ethylpyridin-3-yl)-N6-(1H-pyrazol-4-yl)-[2,7]naphthyridine-1,6-diamine]"
10,1.3 nM,"CCc1ccncc1-c1cc2cc(Nc3ccn(C)n3)ncc2c(N)n1 [Compound 76, 3-(4-Ethylpyridin-3-yl)-N6-(1-methyl-1H-pyrazol-3-yl)-[2,7]naphthyridine-1,6-diamine]"
11,0.6 nM,"CCc1ccncc1-c1cc2cc(Nc3cc[nH]n3)ncc2c(N)n1 [Compound 77, 3-(4-Ethylpyridin-3-yl)-N6-(1H-pyrazol-3-yl)-[2,7]naphthyridine-1,6-diamine]"
12,0.3 nM,"CCc1ccncc1-c1cc2cc(Nc3cc(C)ncn3)ncc2c(N)n1 [Compound 80, 3-(4-Ethylpyridin-3-yl)-N6-(6-methylpyrimidin-4-yl)-[2,7]naphthyridine-1,6-diamine]"
13,0.3 nM,"CCc1ccncc1-c1cc2cc(Nc3cc(C(=O)N(C)CC)ccn3)ncc2c(N)n1 [Compound 81, 2-[8-Amino-6-(4-ethylpyridin-3-yl)-[2,7]naphthyridin-3-ylamino]-N-ethyl-N-methylisonicotinamide]"
14,0.3 nM,"CCc1ccncc1-c1cc2cc(Nc3cccc(CO)n3)ncc2c(N)n1 [Compound 83, {6-[8-amino-6-(4-ethylpyridin-3-yl)-[2,7]naphthyridin-3-ylamino]pyridin-2-yl}methanol]"
15,1.8 nM,"CCc1ccncc1-c1cc2cc(NC(=O)c3cnn(C4CCNCC4)c3)ncc2c(N)n1 [Compound 84, 1-Piperidin-4-yl-1H-pyrazole-4-carboxylic acid [8-amino-6-(4-ethylpyridin-3-yl)-[2,7]naphthyridin-3-yl]amide]"
16,1.98 nM,"CCc1ccncc1-c1cc2cc(Nc3cnn(CCO)c3)ncc2c(N)n1 [Compound 85, 2-{4-[8-Amino-6-(4-ethylpyridin-3-yl)-[2,7]naphthyridin-3-ylamino]pyrazol-1-yl}ethanol]"
17,21.5 nM,"CCc1ccncc1-c1cc2cc(NC(=O)Cc3ccn[nH]3)ncc2c(N)n1 [Compound 102, N-(8-amino-6-(4-ethylpyridin-3-yl)-2,7-naphthyridin-3-yl)-2-(1H-pyrazol-5-yl)acetamide]"
18,40.2 nM,"CCc1ccncc1-c1cc2cc(NCc3ccn[nH]3)ncc2c(N)n1 [Compound 105, N6-((1H-pyrazol-5-yl)methyl)-3-(4-ethylpyridin-3-yl)-2,7-naphthyridine-1,6-diamine]"
19,1.3 nM,"CCc1ccncc1-c1cc2cc(NC(=O)N[C@H]3C[C@@H](O)C3)ncc2c(N)n1 [Compound 109, 1-[8-amino-6-(4-ethyl-3-pyridyl)-2,7-naphthyridin-3-yl]-3-(cis-3-hydroxycyclobutyl)urea]"
20,2 nM,"CCc1ccncc1-c1cc2cc(Nc3cnn(CCO)c3)ncc2c(N)n1 [Compound 168, 2-[4-[[8-amino-6-(4-ethyl-3-pyridyl)-2,7-naphthyridin-3-yl]amino]pyrazol-1-yl]ethanol]"
